#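 How tested: cells in 96-well plates exposed to compound for 48 hours at five concentrations. GI50 is the concentration that inhibits growth by half.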 The source made the active and inactive calls. Cut-off read from the data, not from the text of the source: active = GI50 up to about 1.1 µM and inactive = higher.
# How the values were obtained:
# Assay in all cases: inhibition of tumour cell growth, NCI panel, 48 h
# [1] = tested on: 786-0
# [2] = tested on: A498
# [3] = tested on: A549
# [4] = tested on: ACHN
# [5] = tested on: BT-549
# [6] = tested on: CAKI-1
# [7] = tested on: CCRF-CEM
# [8] = tested on: COLO 205
# [9] = tested on: DU-145
# [10] = tested on: EKVX
# [11] = tested on: HCC 2998
# [12] = tested on: HCT-116
# [13] = tested on: HCT-15
# [14] = tested on: HL-60
# [15] = tested on: HOP-62
# [16] = tested on: HOP-92
# [17] = tested on: HT-29
# [18] = tested on: Hs-578T
# [19] = tested on: IGROV-1
# [20] = tested on: K562
# [21] = tested on: KM12
# [22] = tested on: LOX IMVI
# [23] = tested on: M14
# [24] = tested on: MCF7
# [25] = tested on: MDA-MB-231
# [26] = tested on: MDA-MB-435
# [27] = tested on: MDA-N
# [28] = tested on: MOLT-4
# [29] = tested on: Malme-3M
# [30] = tested on: NCI-H226
# [31] = tested on: NCI-H23
# [32] = tested on: NCI-H522
# [33] = tested on: NCI/ADR-RES
# [34] = tested on: OVCAR-3
# [35] = tested on: OVCAR-4
# [36] = tested on: OVCAR-5
# [37] = tested on: OVCAR-8
# [38] = tested on: PC-3
# [39] = tested on: RPMI-8226
# [40] = tested on: RXF 393
# [41] = tested on: SF-268
# [42] = tested on: SF-295
# [43] = tested on: SF-539
# [44] = tested on: SK-MEL-28
# [45] = tested on: SK-MEL-2
# [46] = tested on: SK-MEL-5
# [47] = tested on: SK-OV-3
# [48] = tested on: SN12C
# [49] = tested on: SNB-19
# [50] = tested on: SNB-75
# [51] = tested on: SR
# [52] = tested on: SW-620
# [53] = tested on: T47D
# [54] = tested on: TK-10
# [55] = tested on: U-251
# [56] = tested on: UACC-257
# [57] = tested on: UACC-62
# [58] = tested on: UO-31
smiles,measurement,setting,value
N#CC(c1ccccc1)N(CCc1ccccc1)C(=O)Oc1ccccc1 (stereo not drawn),GI50,[1],> 100 µM (inactive)
same,GI50,[2],> 100 µM (inactive)
same,GI50,[3],> 100 µM (inactive)
same,GI50,[4],> 100 µM (inactive)
same,GI50,[5],> 100 µM (inactive)
same,GI50,[6],> 100 µM (inactive)
same,GI50,[7],> 100 µM (inactive)
same,GI50,[8],> 100 µM (inactive)
same,GI50,[9],> 100 µM (inactive)
same,GI50,[10],> 100 µM (inactive)
same,GI50,[11],> 100 µM (inactive)
same,GI50,[12],> 100 µM (inactive)
same,GI50,[13],> 100 µM
same,GI50,[14],> 100 µM (inactive)
same,GI50,[15],82 µM (inactive)
same,GI50,[16],29.5 µM (inactive)
same,GI50,[17],> 100 µM (inactive)
same,GI50,[18],44.8 µM (inactive)
same,GI50,[19],> 100 µM (inactive)
same,GI50,[20],> 100 µM (inactive)
same,GI50,[21],> 100 µM (inactive)
same,GI50,[22],> 100 µM (inactive)
same,GI50,[23],> 100 µM (inactive)
same,GI50,[24],> 100 µM (inactive)
same,GI50,[25],> 100 µM (inactive)
same,GI50,[26],> 100 µM (inactive)
same,GI50,[27],> 100 µM (inactive)
same,GI50,[28],> 100 µM (inactive)
same,GI50,[29],> 100 µM (inactive)
same,GI50,[30],34.1 µM (inactive)
same,GI50,[31],> 100 µM (inactive)
same,GI50,[32],> 100 µM (inactive)
same,GI50,[33],> 100 µM (inactive)
same,GI50,[34],> 100 µM (inactive)
same,GI50,[35],> 100 µM (inactive)
same,GI50,[36],> 100 µM (inactive)
same,GI50,[37],> 100 µM (inactive)
same,GI50,[38],> 100 µM (inactive)
same,GI50,[39],> 100 µM (inactive)
same,GI50,[40],46.9 µM (inactive)
same,GI50,[41],> 100 µM (inactive)
same,GI50,[42],> 100 µM (inactive)
same,GI50,[43],> 100 µM (inactive)
same,GI50,[44],> 100 µM (inactive)
same,GI50,[45],> 100 µM (inactive)
same,GI50,[46],> 100 µM (inactive)
same,GI50,[47],> 100 µM (inactive)
same,GI50,[48],> 100 µM (inactive)
same,GI50,[49],53 µM (inactive)
same,GI50,[50],25.6 µM (inactive)
same,GI50,[51],> 100 µM (inactive)
same,GI50,[52],> 100 µM (inactive)
same,GI50,[53],> 100 µM (inactive)
same,GI50,[54],> 100 µM (inactive)
same,GI50,[55],> 100 µM (inactive)
same,GI50,[56],> 100 µM (inactive)
same,GI50,[57],> 100 µM (inactive)
same,GI50,[58],> 100 µM (inactive)
S=C(S)N1CCN(c2cccc(Cl)c2)CC1,GI50,[1],73.1 µM (inactive)
same,GI50,[2],> 100 µM (inactive)
same,GI50,[3],> 100 µM (inactive)
same,GI50,[4],> 100 µM (inactive)
same,GI50,[5],86.5 µM (inactive)
same,GI50,[6],42.1 µM (inactive)
same,GI50,[7],34.9 µM (inactive)
same,GI50,[8],76.4 µM (inactive)
same,GI50,[9],> 100 µM (inactive)
same,GI50,[10],> 100 µM (inactive)
same,GI50,[11],52.6 µM (inactive)
same,GI50,[12],41.4 µM (inactive)
same,GI50,[13],> 100 µM
same,GI50,[14],34.9 µM (inactive)
same,GI50,[15],82.8 µM (inactive)
same,GI50,[16],80.7 µM (inactive)
same,GI50,[17],> 100 µM (inactive)
same,GI50,[18],> 100 µM (inactive)
same,GI50,[19],> 100 µM (inactive)
same,GI50,[20],48.9 µM (inactive)
same,GI50,[21],75.3 µM (inactive)
same,GI50,[22],36.7 µM (inactive)
same,GI50,[23],> 100 µM (inactive)
same,GI50,[24],> 100 µM (inactive)
same,GI50,[25],68.9 µM (inactive)
same,GI50,[26],> 100 µM (inactive)
same,GI50,[27],> 100 µM (inactive)
same,GI50,[28],78.3 µM (inactive)
same,GI50,[29],> 100 µM (inactive)
same,GI50,[31],> 100 µM (inactive)
same,GI50,[32],> 100 µM (inactive)
same,GI50,[33],> 100 µM (inactive)
same,GI50,[34],> 100 µM (inactive)
same,GI50,[36],> 100 µM (inactive)
same,GI50,[37],> 100 µM (inactive)
same,GI50,[38],66.8 µM (inactive)
same,GI50,[39],47.4 µM (inactive)
same,GI50,[40],> 100 µM (inactive)
same,GI50,[41],76.4 µM (inactive)
same,GI50,[42],> 100 µM (inactive)
same,GI50,[43],> 100 µM (inactive)
same,GI50,[44],39.8 µM (inactive)
same,GI50,[45],85.5 µM (inactive)
same,GI50,[46],27.9 µM (inactive)
same,GI50,[48],> 100 µM (inactive)
same,GI50,[49],> 100 µM (inactive)
same,GI50,[50],69.3 µM (inactive)
same,GI50,[51],39.4 µM (inactive)
same,GI50,[52],65.3 µM (inactive)
same,GI50,[53],34.6 µM (inactive)
same,GI50,[54],> 100 µM (inactive)
same,GI50,[55],44.3 µM (inactive)
same,GI50,[56],85.1 µM (inactive)
same,GI50,[57],> 100 µM (inactive)
same,GI50,[58],30.8 µM (inactive)

# — ChEMBL document CHEMBL1201862, “PubChem BioAssay data set” (2004)
